Data on two compounds can be found in paper PMC12559995 (RSC Advances, 2025).

A short description of assay [1]: DPPH free radical scavenging assay. As to conditions: read-out: DPPH IC50; 0.1 mM DPPH, 30 min, 517 nm; mean ± SD. A general note: DPPH is a stable violet radical that fades when it is reduced.
For assay [2], the system named is MCF-7 (human breast adenocarcinoma) cells. The experiment in a line: Cytotoxicity assay. The assay is classed as cell-based. The conditions noted are these: MCF7, 48 h, read-out: IC50 (MCF-7).
Assay [3] has as its system HEK-293 (normal human embryonic kidney) cells. Put plainly: Cytotoxicity assay. It is filed as cell-based. The conditions noted are these: HEK293, 48 h, read-out: IC50 (HEK-293).
For assay [4], the system named is Plasmodium falciparum 3D7. The experiment in a line: Antimalarial assay. It is filed as cell-based.

As a reminder, the IC50 is the concentration that inhibits the measured activity by half. `O=C1O[C@H]([C@@H](O)CO)C(O)=C1O` [Ascorbic acid, reference compound]: in assay [1], the IC50 worked out at 5.21 ± 0.06 µM.

Consider `CC(=NNC(=S)NN=C(C(=NO)c1ccccc1)c1ccccc1)c1ccccc1C` [HBMT-MA7, N'-[2-(Hydroxyimino)-1,2-diphenylethylidene]-2-[1-(o-tolyl)ethylidene]hydrazine-1-carbothiohydrazide], for which the IC50 in assay [1] was found to be 10.5 ± 0.19 µM; in assay [2] it was 29.7 ± 1 µM; in assay [3] it was 68.2 ± 1.8 µM; in assay [4] (Plasmodium falciparum, 3D7, 72 h, read-out: Antimalarial IC50), 2.91 ± 0.14 µM. Further, the “Selectivity index (HEK/IC50)” value in assay [4] (SI = IC50 (HEK-293)/IC50 (antimalarial)) was found to be 23.4.
